Experiment [1] deals with CDK9 (Homo sapiens, UniProt P50750). Put plainly: kinome profiling at 1 μM, CDK9. The conditions noted are these: read-out: % inhibition of CDK9. It is filed as biochemical. The text has this:
(§1) We profiled three compounds from the series across the kinome (FIG. 11). […] To identify the structural drivers for CDK inhibition, we obtained X-ray crystal structures of 5 y and 6 g SU1336 and SU1349 with CDK-2 (FIG. 12A) to potentially identify possible routes towards introducing selectivity for IKKα over the CDK enzymes as well as IKKβ. […] All three derivatives form complexes with CDK2 with the pyrrolo[2,3 -b]pyridine H-bonding to GK+3 (Leu 83 ) and the aminoindazole projected towards the G-loop (FIG. 12A), forming H-bonds with Glu 51 and Lys 33 at the back of the pocket. The adoption of the 4 SU1253 -type orientation, rather than the flipped pose observed in IKKα, is probably facilitated by Tr-stacking between the aminoindazole and the GK residue, which in the CDKs is Phe, rather than Met. […] For 6 g SU1349, the hydrophobic pendant benzyloxy group points out into solvent, but can form face-to-edge Tr-Tr interactions with Phe 82 and His 84 from the hinge. Exchanging the hydrophobic pendant benzyloxy group for the morpholinoethyl-containing substituent in 5 y SU1336 removes any direct interaction with these hinge residues, preferring to sit in a more solvent-exposed position, as befits a basic side chain that will be protonated at physiological pH (FIG. 12B).
Black, 4 SU1253; grey, 5 r SU1261; diagonal stripes, 6 g SU1349. […] All tested compounds (4 SU1253, 5 r SU1261 and 6 g SU1349 ) inhibited CDK5 and CDK9 with >80 %.

Experiment [2] concerns the target T1, IKKα (Homo sapiens, UniProt O15111).
T1 sequence (O15111 1-745): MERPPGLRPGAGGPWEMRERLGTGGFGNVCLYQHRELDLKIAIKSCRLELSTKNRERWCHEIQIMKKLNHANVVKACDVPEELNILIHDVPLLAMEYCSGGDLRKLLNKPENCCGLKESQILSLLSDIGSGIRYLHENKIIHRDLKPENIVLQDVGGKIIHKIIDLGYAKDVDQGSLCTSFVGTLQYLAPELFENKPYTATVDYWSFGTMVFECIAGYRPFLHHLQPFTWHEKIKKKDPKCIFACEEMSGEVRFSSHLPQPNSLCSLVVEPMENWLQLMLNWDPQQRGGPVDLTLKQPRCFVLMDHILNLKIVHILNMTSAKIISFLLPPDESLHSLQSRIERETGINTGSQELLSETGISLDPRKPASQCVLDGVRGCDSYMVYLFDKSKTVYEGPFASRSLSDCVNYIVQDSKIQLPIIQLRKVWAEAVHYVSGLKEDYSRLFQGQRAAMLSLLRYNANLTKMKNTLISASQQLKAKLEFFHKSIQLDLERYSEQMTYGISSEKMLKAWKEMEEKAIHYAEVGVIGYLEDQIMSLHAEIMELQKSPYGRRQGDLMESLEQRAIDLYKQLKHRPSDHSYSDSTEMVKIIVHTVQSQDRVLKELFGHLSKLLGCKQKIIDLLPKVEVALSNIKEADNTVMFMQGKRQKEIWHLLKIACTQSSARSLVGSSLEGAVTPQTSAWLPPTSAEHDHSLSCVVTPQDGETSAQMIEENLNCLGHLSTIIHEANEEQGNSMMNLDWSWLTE
Put plainly: in-house DELFIA kinase assay, IKKα. In kind it is biochemical.

Experiment [3] concerns the target T1, IKKα. Put plainly: activity and selectivity in cells. In kind it is cell-based.
In experiment [4] the target is T2, PRAK (Homo sapiens, UniProt Q8IW41).
T2 sequence (Q8IW41 1-473): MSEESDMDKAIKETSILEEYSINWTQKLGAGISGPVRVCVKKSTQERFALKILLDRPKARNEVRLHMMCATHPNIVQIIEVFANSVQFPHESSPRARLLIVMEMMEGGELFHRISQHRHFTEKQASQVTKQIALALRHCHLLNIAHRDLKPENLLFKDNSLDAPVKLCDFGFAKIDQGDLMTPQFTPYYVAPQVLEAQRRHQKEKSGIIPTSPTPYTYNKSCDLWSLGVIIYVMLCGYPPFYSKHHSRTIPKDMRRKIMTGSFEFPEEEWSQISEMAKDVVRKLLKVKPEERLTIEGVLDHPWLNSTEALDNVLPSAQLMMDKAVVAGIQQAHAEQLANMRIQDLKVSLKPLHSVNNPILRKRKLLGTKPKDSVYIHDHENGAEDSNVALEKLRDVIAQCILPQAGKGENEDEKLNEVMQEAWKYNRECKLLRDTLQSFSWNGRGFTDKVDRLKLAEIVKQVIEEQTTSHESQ
As to the kind of experiment: kinome profiling at 1 μM, PRAK. In kind it is biochemical.
Text: as §1

Experiment [5] concerns IKKα over IKKβ. Put plainly: selectivity for IKKα over IKKβ from the kinase assay. It is filed as biochemical. The text has this: To examine the pyrrolo[2,3 -b]pyridines as an alternative scaffold, we adopted the AIPP core because it had similar dimensions to 1 SU909, with HBD/HBA motifs positioned at the scaffold extremities to interact with both the hinge region and the G-loop wall of IKKα, a rationale we had previously proposed as the basis for imparting selectivity. A preliminary set of AIPP derivatives was designed to explore its utility as an IKK-targeting scaffold, whilst incorporating additional functionality through which to introduce selectivity for the IKKα isoform (2-4 SU1087, SU1266 and SU1253; FIG. 3). This was achieved by initially adopting two different approaches: either appending a hydrophobic moiety to the pyrrolo[2,3 -b]pyridine motif as a fused form to afford the tricyclic derivatives 2 and 3 SU1266 and SU1087, or as a phenyl substituent to introduce flexibility with the central pyrrolo[2,3 -b]pyridine moiety in 4 SU1253 . […] The pyrrolo[2,3 -b]pyridine was bound to the hinge region in the classical HBA/HBD motif with the GK+3 NH and C═O backbone, whilst the aminoindazole projected towards the top of the pocket to interact with the G-loop (FIG. 4A). […] In both isoforms, the 2 -phenyl moiety was oriented out from the hinge towards the exposed solvent area.
To shift the selectivity profile towards IKKα, we selected 4 SU1253 for structural optimization based on the notion that sigma-bond rotation between the phenyl ring and the pyrrolo[2,3 -b]pyridine would inbuild the flexibility required to engage with the three dimensional array of residues nearby to exploit differences between the two isoforms. Furthermore, this would enable the inclusion of moieties that could also project into solvent and address solubility considerations. Small groups (NH2, OH, OMe, OEt and F) were initially introduced into the phenyl ring to evaluate their impact on the selectivity profile against both IKKs (5 a-g SU1354 -SU1373, Table 2 ). Our goal was to achieve a 1:50 selectivity ratio of IKKα to IKKβ, with a minimum IKKβ inhibitory Ki of 500 nM.

In general, inhibition refers to how much of the control response was suppressed. A word on the Ki: it is the equilibrium dissociation constant of an inhibitor or competing ligand from its target.

Where two headings read alike, the source gives them in different places. A value given as a limit tells only on which side of the number the result lay.

Sequence of CDK9 (P50750 whole entry, species assumed): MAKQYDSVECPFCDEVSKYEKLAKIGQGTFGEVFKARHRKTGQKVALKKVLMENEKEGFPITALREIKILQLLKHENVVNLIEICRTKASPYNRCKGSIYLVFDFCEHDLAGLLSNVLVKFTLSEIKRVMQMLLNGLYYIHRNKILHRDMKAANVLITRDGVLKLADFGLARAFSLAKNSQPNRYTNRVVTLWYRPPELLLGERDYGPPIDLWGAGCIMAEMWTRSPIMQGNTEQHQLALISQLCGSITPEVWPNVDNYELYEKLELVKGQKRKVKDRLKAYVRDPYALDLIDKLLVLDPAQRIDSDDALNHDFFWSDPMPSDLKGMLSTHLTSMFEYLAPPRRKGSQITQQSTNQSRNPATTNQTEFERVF
Sequence of CDK9 (O60563 whole entry partner, species assumed): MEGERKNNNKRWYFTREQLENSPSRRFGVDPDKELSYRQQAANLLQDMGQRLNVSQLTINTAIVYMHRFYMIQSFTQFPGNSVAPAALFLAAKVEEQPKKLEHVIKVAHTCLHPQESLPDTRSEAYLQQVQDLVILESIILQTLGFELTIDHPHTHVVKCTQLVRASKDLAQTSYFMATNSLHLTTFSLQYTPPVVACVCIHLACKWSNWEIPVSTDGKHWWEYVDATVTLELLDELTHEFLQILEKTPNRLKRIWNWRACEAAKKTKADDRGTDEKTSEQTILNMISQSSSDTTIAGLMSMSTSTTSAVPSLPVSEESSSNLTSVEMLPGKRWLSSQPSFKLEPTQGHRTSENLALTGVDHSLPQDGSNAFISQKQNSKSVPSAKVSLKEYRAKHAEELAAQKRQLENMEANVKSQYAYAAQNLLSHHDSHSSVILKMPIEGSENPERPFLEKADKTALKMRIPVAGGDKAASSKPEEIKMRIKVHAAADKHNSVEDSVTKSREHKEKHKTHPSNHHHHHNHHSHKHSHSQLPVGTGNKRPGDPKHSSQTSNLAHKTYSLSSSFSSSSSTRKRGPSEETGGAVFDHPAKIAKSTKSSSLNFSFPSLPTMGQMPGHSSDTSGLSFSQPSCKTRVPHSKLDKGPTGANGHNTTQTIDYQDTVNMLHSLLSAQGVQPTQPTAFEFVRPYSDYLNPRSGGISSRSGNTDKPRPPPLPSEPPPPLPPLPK

For `Nc1n[nH]c2ccc(-c3ccnc4[nH]c(-c5cccc(OCc6ccccc6)c5)cc34)cc12` [5r SU1261, 5-(2-(3-(benzyloxy)phenyl)-1 H-pyrrolo[2,3-b]pyridin-4-yl)-1 H-indazol-3-amine], the inhibition at 1 µM in experiment [1] (1 μM) and in experiment [4] was greater than 80% throughout. The compound also returned a Ki in experiment [2] of 10 nM. The “activity and selectivity in cells, in words” value in experiment [3] was “activity and selectivity being recapitulated in cells”.
On to `Nc1n[nH]c2ccc(-c3ccnc4[nH]c(-c5ccnc(OCc6ccccc6)c5)cc34)cc12` [6g SU1349, 5-(2-(2-(Benzyloxy)pyridin-4-yl)-1 H-pyrrolo[2,3-b]pyridin-4-yl)-1 H-indazol-3-amine], for which the inhibition at 1 µM in experiment [1] is greater than 80%. Also, the inhibition constant (Ki) in experiment [2] is 16 nM. In addition, the “selectivity for IKKα over IKKβ, in words” value in experiment [5] is recorded as “essential selectivity profile”. The “selectivity for IKKα over IKKβ” value in experiment [5] (ratio of Ki) is reported as 209 fold. In experiment [4] (compared with 5r SU1261), the “off-target inhibition of PRAK, in words” value is on record as “significantly reduced off-target inhibition”.
